The values that follow come from patent US9611289B2, “Farnesoid X receptor modulators” (Intercept Pharmaceuticals, Inc., priority 2013, dated 2017).

One may read the IC50 as the midpoint of a concentration-inhibition curve. Usually solubility stands for the concentration that dissolves in the medium under given conditions. Lower therefore signals little dissolved substance. Usually EC50 stands for the concentration needed to bring the measured effect to its halfway point.

Series [1] can be described thus: Surface tension at CMC. The following applies: […] NaCl water solution. The format is physicochemical.
The nature of series [2]: 1-octanol-water partition coefficient (LogPA-). The following applies: ionized species.
A short description of series [3]: Critical micellar concentration. The following applies: […] NaCl water solution. It counts as physicochemical.
Series [4] concerns the target CYP2D6 (Homo sapiens, UniProt P10635). The experiment in a line: biochemical.
A short description of series [5]: Water solubility.
Series [6] concerns the target RARα (Homo sapiens, UniProt P10276). The series can be described thus: AlphaScreen nuclear receptor activation. It counts as biochemical. (In general: Bead proximity is the source of the signal in Alpha formats.)
The target in series [7] is T1, PXR (Homo sapiens, UniProt O75469).
T1 sequence (O75469 1-434): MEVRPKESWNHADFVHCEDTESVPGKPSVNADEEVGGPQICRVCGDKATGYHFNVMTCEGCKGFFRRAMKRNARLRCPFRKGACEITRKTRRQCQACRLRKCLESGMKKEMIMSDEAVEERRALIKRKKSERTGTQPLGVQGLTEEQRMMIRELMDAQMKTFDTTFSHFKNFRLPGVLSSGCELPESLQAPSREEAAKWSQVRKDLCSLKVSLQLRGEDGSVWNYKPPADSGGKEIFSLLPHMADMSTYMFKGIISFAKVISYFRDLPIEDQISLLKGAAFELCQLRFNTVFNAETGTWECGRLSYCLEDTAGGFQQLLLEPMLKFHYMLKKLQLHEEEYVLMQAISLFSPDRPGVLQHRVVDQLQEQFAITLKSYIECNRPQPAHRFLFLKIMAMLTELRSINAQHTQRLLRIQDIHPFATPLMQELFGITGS
The experiment in a line: AlphaScreen nuclear receptor activation. It counts as biochemical.

The target of series [8] is hERG potassium channel (Homo sapiens, UniProt Q12809). The series can be described thus: PREDICTOR hERG Fluorescence Polarization assay. The following applies: CHO-hERG membrane preparations.
The target of series [9] is T2, CYP1A2 (Homo sapiens, UniProt P05177).
T2 sequence (P05177 1-516): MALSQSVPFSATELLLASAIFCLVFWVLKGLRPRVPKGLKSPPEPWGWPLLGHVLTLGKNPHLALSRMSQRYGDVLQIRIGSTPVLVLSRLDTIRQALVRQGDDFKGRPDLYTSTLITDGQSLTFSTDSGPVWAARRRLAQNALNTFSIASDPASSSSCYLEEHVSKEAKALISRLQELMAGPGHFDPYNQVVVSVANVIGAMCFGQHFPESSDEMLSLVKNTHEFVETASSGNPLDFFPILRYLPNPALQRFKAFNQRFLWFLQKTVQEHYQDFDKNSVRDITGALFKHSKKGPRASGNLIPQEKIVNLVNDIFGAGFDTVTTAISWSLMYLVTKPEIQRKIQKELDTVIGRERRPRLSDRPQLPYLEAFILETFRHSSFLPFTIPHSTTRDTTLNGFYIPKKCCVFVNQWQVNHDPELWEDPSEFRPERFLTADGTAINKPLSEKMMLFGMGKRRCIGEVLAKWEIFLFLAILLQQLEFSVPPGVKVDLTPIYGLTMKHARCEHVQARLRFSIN
The series can be described thus: biochemical.

In series [10] the test system is HepG2 cells. The note with it: for living cells: LDH measure.
Series [11] deals with T3, CYP3A4 (Homo sapiens, UniProt P08684). The experiment in a line: CYP450 inhibition, recombinant baculosomes, fluorescent signal. The following applies: read-out: CYP3A4 (Green Substrate) IC50.
Series [12] deals with CYP2E1 (Homo sapiens, UniProt P05181). The experiment in a line: biochemical.
The target in series [13] is CYP2C19 (Homo sapiens, UniProt P33261). The series can be described thus: biochemical.
Series [14] addresses T3, CYP3A4. The experiment in a line: biochemical.
Series [15] addresses CYP2C9 (Homo sapiens, UniProt P11712). The series can be described thus: biochemical.
Series [16] relates to HepG2 cells. The series can be described thus: Cell viability by intracellular ATP in HepG2 cells. The following applies: 4 h, different concentrations, FIG. 6. It counts as cell-based, human.
Series [17] concerns the target CAR (Homo sapiens, UniProt Q14994). The following applies: read-out: CAR Activation EC50; *inverse agonist; taken from Rizzo et al. 2010; cited from earlier work.
For series [18], the target named is T1, PXR. The note with it: taken from Rizzo et al. 2010; cited from earlier work.
For series [19], the system named is FXR target genes. The experiment in a line: Quantitative RT-PCR of FXR target genes in HepG2 cells. The format is cell-based, human. The following applies: 1 μM, overnight.
For series [20], the target named is PR (Homo sapiens, UniProt P06401). The experiment in a line: AlphaScreen nuclear receptor activation. The format is biochemical.
Series [21] has as its system HepG2 cells. The series can be described thus: cells. The note with it: Homo sapiens, HepG2, read-out: Membrane integrity EC50 (μM) (LDH measure).

Converted amounts (≈) assume the structure as drawn. Counter-ions that a name gives are not always drawn. Like-named read-outs stand apart in the source and are kept apart here. Bounds are passed on as bounds.

In the case of `CC[C@H]1[C@@H](O)C2C3CCC(C(C)CC(C)C(=O)O)[C@@]3(C)[C@@H](O)CC2[C@@]2(C)CC[C@@H](O)C[C@@H]12` (stereo in doubt) [Compound C, 6α-ethyl-23(S)-methyl-3α,7α,12α trihydroxy-5β-cholan-24-oic acid], the “STCMC(c) (Dyne/cm) Surface Tension at CMC” value (from here on “STCMC(c)”) in [1] is on record as 50.1 Dyne/cm. Besides, the “LogPA−(d) 1-octanol-water partition coefficient” value in series [2] amounted to 1.4. In addition, the “CMC(b) (mM) Critical Micellar Concentration” value (“CMC(b)” for short) in [3] is 2 mM.

With `C[C@H](CCC(=O)O)[C@H]1CC[C@H]2[C@@H]3[C@H](O)C[C@@H]4C[C@H](O)CC[C@]4(C)[C@H]3CC[C@]12C` [CDCA, chenodeoxycholic acid], the “STCMC(c)” value in series [1] amounted to 45.5 Dyne/cm. For the same compound, the “LogPA−(d) 1-octanol-water partition coefficient” value in series [2] came out at 2.2. For the same compound, the “CMC(b)” value in series [3] is reported as 3.2 mM.

As for `CC[C@H]1[C@@H](O)[C@@H]2[C@H]([C@@H](O)C[C@]3(C)[C@@H]([C@H](C)CCC(=O)O)CC[C@@H]23)[C@@]2(C)CC[C@@H](O)C[C@@H]12` [Compound 100, 3α,7α,11β-trihydroxy-6α-ethyl-5β-cholan-24-oic acid], the 50% inhibitory concentration (IC50) in series [4], in [9], in [11], in [12], in [13] and in series [14] was more than 10 µM each time. Further, in series [15], the concentration for half-maximal inhibition (IC50) was more than 10 µM. In [5], this compound came in with a solubility of 143 to 150 µM (≈ 62.4 to 65.5 µg/mL). Further, the “RARα Activation EC50 (μM)” value in [6] is “No activity”. In addition, the “PXR Activation EC50 (μM)” value in series [7] was “No activity”. Besides, in series [8], the “block or inhibition of the hERG potassium channel” value was “does not block or inhibit”. In [10] (HepG2 cells), the living cells result is given as “(100% living cells)”. The “cytotoxic effect on HepG2 cells” value in series [10] (LDH release) is given as “does not induce any cytotoxic effect”. In addition, in series [2], the “LogPA−(d) 1-octanol-water partition coefficient” value is 0.8. Also, the “viable cells (ATP measurement)” value in series [16] is 100%.

As for `CC[C@H]1[C@@H](O)C2C3CC[C@H]([C@H](C)CCC(=O)O)[C@@]3(C)C[C@@H](O)C2[C@@]2(C)CC[C@@H](O)C[C@@H]12` (stereo partly drawn) [Compound 101], in series [10] (HepG2 cells), the “Membrane integrity EC50 (μM) (LDH measure)” value is recorded as “No toxicity” and the living cells result is listed as “(100% living cells)”.

Take `CC[C@H]1[C@@H](O)[C@@H]2[C@H](CC[C@]3(C)[C@@H]([C@H](C)CCOS(=O)(=O)O)CC[C@@H]23)[C@@]2(C)CC[C@@H](O)C[C@@H]12` [Compound B, 6α-ethyl-3α,7α,23-trihydroxy-24-nor-5β-cholan-23-sulfate sodium salt]: the IC50 in series [4], in [9], in [11], in [12], in [13] and in series [14] was more than 10 µM each time. In [15], this compound displayed an IC50 of more than 10 µM. In addition, the “block or inhibition of the hERG potassium channel” value in series [8] was “does not block or inhibit”. The half-maximal effective concentration (EC50) in [17] was 44 µM. The “LogPA−(d) 1-octanol-water partition coefficient” value in series [2] was 2.0. In addition, the “PXR Activation EC50 (μM)” value in [18] is on record as “No activity”. Also, the CYP7α1 gene expression result in series [19] was “down”.

`CC[C@H]1[C@@H](O)C2C3CC[C@H]([C@H](C)C[C@H](C)C(=O)O)[C@@]3(C)CCC2[C@@]2(C)CC[C@@H](O)C[C@@H]12` (stereo partly drawn) [Compound D, 6α-ethyl-23(R)-methyl chenodeoxycholic acid]: the solubility in [5] was found to be 15 µM (≈ 6.52 µg/mL). Besides, the “LogPA−(d) 1-octanol-water partition coefficient” value in series [2] is on record as 2.9.

Turning to `CC[C@H]1[C@@H](O)C2C3C[C@H](O)[C@H]([C@H](C)CCC(=O)O)[C@@]3(C)CCC2[C@@]2(C)CC[C@@H](O)C[C@@H]12` (stereo partly drawn) [Compound E], in series [5], the solubility was found to be 120 µM (≈ 52.4 µg/mL). The “STCMC(c)” value in series [1] was 52.4 Dyne/cm. The “LogPA−(d) 1-octanol-water partition coefficient” value in [2] is given as 1.6. For the same compound, the “CMC(b)” value in [3] stood at 5.9 mM.

In series [20], `C[C@]12C[C@H](O)[C@H]3[C@@H](CCC4=CC(=O)CC[C@@]43C)[C@@H]1CC[C@@H]2C(=O)CO` [Corticosterone] registered a 50% effective concentration (EC50) of 0.05 µM.

Consider `C[C@H](CCC(=O)O)[C@H]1CC[C@H]2[C@@H]3CC[C@@H]4C[C@H](O)CC[C@]4(C)[C@H]3CC[C@]12C` [LCA, lithocholic acid], for which the EC50 in series [21] turned out to be 75 ± 5 µM.

Take `C[C@H](CCC(=O)NCCS(=O)(=O)O)[C@H]1CC[C@H]2[C@@H]3[C@H](O)C[C@@H]4C[C@H](O)CC[C@]4(C)[C@H]3CC[C@]12C` [TCDCA, taurochenodeoxycholic acid]: the “LogPA−(d) 1-octanol-water partition coefficient” value in series [2] amounted to 0.9. Also, in [3], the “CMC(b)” value came out at 3.0 mM.

As for `C[C@H](CCC(=O)NCCS(=O)(=O)O)[C@H]1CC[C@H]2[C@@H]3[C@@H](O)C[C@@H]4C[C@H](O)CC[C@]4(C)[C@H]3CC[C@]12C` [TUDCA, tauroursodeoxycholic acid], the “LogPA−(d) 1-octanol-water partition coefficient” value in series [2] amounted to 1.1. The “CMC(b)” value in series [3] amounted to 2.2 mM.

As to `C[C@H](CCC(=O)O)[C@H]1CC[C@H]2[C@@H]3[C@@H](O)C[C@@H]4C[C@H](O)CC[C@]4(C)[C@H]3CC[C@]12C` [UDCA, ursodeoxycholic acid], the solubility in series [5] was in the range of 7 to 7.5 µM (≈ 2.75 to 2.94 µg/mL). Also, in series [1], the “STCMC(c)” value is reported as 50.5 Dyne/cm. Also, in series [2], the “LogPA−(d) 1-octanol-water partition coefficient” value was determined as 2.2. In addition, the “CMC(b)” value in series [3] was 6 to 10 mM.
